Reference: patent US5955500A (G. D. Searle & Co., priority 1997, dated 1999)
“And” between values parts separate entries of the source, which are not always exact repeats. Equal entries are not always repeated. Where two headings read alike, the source gives them in different places.

Assays:
canine heart = settings: for AH time / Heart rate / Mean arterial pressure: mean ± SE
Method: Fourteen adult mongrel dogs of either sex weighing between 19 and 25 kg were prepared for chronic electrophysiologic investigation by implanting epicardial electrodes and an indwelling aortic catheter. The dogs were fasted overnight and initially anesthetized with halothane on the day of surgery. After tracheal intubation, anesthesia was maintained with isoflurane and oxygen via positive pressure ventilation to keep end tidal carbon dioxide within the normal range. Muscular relaxation was induced by pancuronium. A right thoracotomy was performed in the fifth intercostal space. Three bipolar electrode pairs were sutured to the epicardial surface of the right atrial appendage and on the right and left ventricular apex (FIG. 5). A bipolar electrode was sutured to the right atrium close to the anatomical region of the sinoatrial node. A bipolar plunge electrode was placed into base of the interventricular septum to record a His bundle electrogram. An indwelling arterial catheter was placed into the aorta through the left femoral artery after surgical exposure of the artery at the inner side of the hind limb. All electrode leads were subcutaneously tunneled and exited through the skin between the scapulae. Incisions were closed in anatomic fashion and standard postoperative methods of analgesia were provided with 0.015 mg/kg of buprenorphine (Buprenex®, Reckitt & Colman, Hull, UK) and two times of 25 mg/kg cefazolin (Cefazolin Sodium®, SoloPak Laboratories, Elk Groove Village, Ill.) and dogs were allowed to recover from surgery for a period of seven days prior to testing.
Electrical signals from the bipolar electrodes, after suitable amplification in a custom built preamplifier (gain 1000), were filtered in a separate custom designed and built common mode rejection amplifier with a bandpass filter of 10-1000 Hz and individually adjusted for signal strength (maximal gain 400). […] Right atrial appendage (RA), right ventricular apex (RVA) and His bundle electrograms (HB) were recorded, simultaneously. […] All measurements of conduction times were made during spontaneous sinus rhythm.
The His bundle electrode (HBE) was advanced into the base of the interatrial septum from the aortic root. The electrode was advanced from a point located just behind and to the right of the origin of the right coronary artery. The HBE was slowly advanced parallel to the aorta, inferiorly and slightly anteriorly until a well discernible His potential was recorded. AV conduction (AH) interval was measured as the time difference (ms) between the onset of the initial rapid deflection in the RA electrogram to the beginning of the His potential in the HB electrogram. His-ventricular (HV) conduction time interval (ms) was measured from the beginning of the His potential (HBE) to the initial deflection of the QRS complex wave (earliest left ventricular activation) in a simultaneously recorded surface ECG lead II.
As an indicator of automaticity, sinus node recovery time (SNRT) was determined by pacing the right atrial appendage (30 s at 180 and 200 beats/min at 2 msec pulse duration; 2×threshold). SNRT was measured from the last pacing spike to the first spontaneous atrial activity on the His bundle electrogram after cessation of pacing (ms).
A timed extrastimulus (S2) was delivered 300 ms after the preceding pacing spike (S1).
Verapamil was dissolved in 5% dextrose and water ([…]).
During the postoperative period, each dog was trained to stand quietly in a sling during electrophysiological monitoring. Prior to measurement, electrical signals in each dog were monitored to verify the absence of spontaneous arrhythmias other-than normal respiratory sinus arrhythmias.
From the resting dog, 5 channel records were obtained at a sampling rate of 1 kHz per channel for 7 min to determine the following conduction intervals: AH, HV, QRS, QT and HR. A corrected QT interval [QTc=QT interval in ms/ (R-R interval in s)^1/2 ] was also calculated.

[1] = pH 5, individual replicates

COc1ccc(CCN(C)CCCC(C#N)(c2ccc(OC)c(OC)c2)C(C)C)cc1OC (racemic) [80/20S]
AH time (canine heart; 0.1 mg/kg i.v., 0 min): 90 ± 4 ms | Heart rate (canine heart; 0.1 mg/kg i.v., 0 min): 125 ± 8 beats per min | Mean arterial pressure (canine heart; 0.1 mg/kg i.v., 0 min): 96 ± 3 mmHg | AH time (canine heart; 0.1 mg/kg i.v., 1 min): 95 ± 5 ms | Heart rate (canine heart; 0.1 mg/kg i.v., 1 min): 126 ± 7 beats per min | Mean arterial pressure (canine heart; 0.1 mg/kg i.v., 1 min): 99 ± 3 mmHg | AH time (canine heart; 0.1 mg/kg i.v., 2 min): 97 ± 5 ms | Heart rate (canine heart; 0.1 mg/kg i.v., 2 min): 119 ± 7 beats per min | Mean arterial pressure (canine heart; 0.1 mg/kg i.v., 2 min): 98 ± 3 mmHg | AH time (canine heart; 0.1 mg/kg i.v., 3 min): 98 ± 5 ms | Heart rate (canine heart; 0.1 mg/kg i.v., 3 min): 115 ± 7 beats per min | Mean arterial pressure (canine heart; 0.1 mg/kg i.v., 3 min): 99 ± 3 mmHg | AH time (canine heart; 0.1 mg/kg i.v., 4 min): 96 ± 5 ms | Heart rate (canine heart; 0.1 mg/kg i.v., 4 min): 116 ± 8 beats per min | Mean arterial pressure (canine heart; 0.1 mg/kg i.v., 4 min): 100 ± 3 mmHg | AH time (canine heart; 0.1 mg/kg i.v., 5 min): 96 ± 6 ms | Heart rate (canine heart; 0.1 mg/kg i.v., 5 min): 123 ± 7 beats per min | Mean arterial pressure (canine heart; 0.1 mg/kg i.v., 5 min): 100 ± 3 mmHg | AH time (canine heart; 0.2 mg/kg i.v., 0 min): 99 ± 5 ms | Heart rate (canine heart; 0.2 mg/kg i.v., 0 min): 136 ± 9 beats per min | Mean arterial pressure (canine heart; 0.2 mg/kg i.v., 0 min): 89 ± 2 mmHg | AH time (canine heart; 0.2 mg/kg i.v., 1 min): 111 ± 8 ms | Heart rate (canine heart; 0.2 mg/kg i.v., 1 min): 134 ± 8 beats per min | Mean arterial pressure (canine heart; 0.2 mg/kg i.v., 1 min): 95 ± 4 mmHg | AH time (canine heart; 0.2 mg/kg i.v., 2 min): 115 ± 9 ms | Heart rate (canine heart; 0.2 mg/kg i.v., 2 min): 129 ± 7 beats per min | Mean arterial pressure (canine heart; 0.2 mg/kg i.v., 2 min): 94 ± 4 mmHg | AH time (canine heart; 0.2 mg/kg i.v., 3 min): 113 ± 8 ms | Heart rate (canine heart; 0.2 mg/kg i.v., 3 min): 124 ± 7 beats per min | Mean arterial pressure (canine heart; 0.2 mg/kg i.v., 3 min): 97 ± 4 mmHg | AH time (canine heart; 0.2 mg/kg i.v., 4 min): 115 ± 9 ms | Heart rate (canine heart; 0.2 mg/kg i.v., 4 min): 125 ± 8 beats per min | Mean arterial pressure (canine heart; 0.2 mg/kg i.v., 4 min): 99 ± 3 mmHg | AH time (canine heart; 0.2 mg/kg i.v., 5 min): 116 ± 9 ms | Heart rate (canine heart; 0.2 mg/kg i.v., 5 min): 123 ± 9 beats per min | Mean arterial pressure (canine heart; 0.2 mg/kg i.v., 5 min): 98 ± 3 mmHg | AH time (canine heart; 0.4 mg/kg i.v., 0 min): 111 ± 5 ms | Mean arterial pressure (canine heart; 0.4 mg/kg i.v., 0 min): 87 ± 3 mmHg | Heart rate (canine heart; 0.4 mg/kg i.v., 0 min, listed as 80/205): 155 ± 12 beats per min | AH time (canine heart; 0.4 mg/kg i.v., 1 min): 121 ± 4 ms | Mean arterial pressure (canine heart; 0.4 mg/kg i.v., 1 min): 95 ± 3 mmHg | Heart rate (canine heart; 0.4 mg/kg i.v., 1 min, listed as 80/205): 153 ± 11 beats per min | AH time (canine heart; 0.4 mg/kg i.v., 2 min): 123 ± 5 ms | Mean arterial pressure (canine heart; 0.4 mg/kg i.v., 2 min): 97 ± 3 mmHg | Heart rate (canine heart; 0.4 mg/kg i.v., 2 min, listed as 80/205): 149 ± 10 beats per min | AH time (canine heart; 0.4 mg/kg i.v., 3 min): 125 ± 6 ms | Mean arterial pressure (canine heart; 0.4 mg/kg i.v., 3 min): 101 ± 3 mmHg | Heart rate (canine heart; 0.4 mg/kg i.v., 3 min, listed as 80/205): 147 ± 10 beats per min | AH time (canine heart; 0.4 mg/kg i.v., 4 min): 127 ± 6 ms | Mean arterial pressure (canine heart; 0.4 mg/kg i.v., 4 min): 103 ± 3 mmHg | Heart rate (canine heart; 0.4 mg/kg i.v., 4 min, listed as 80/205): 140 ± 7 beats per min | AH time (canine heart; 0.4 mg/kg i.v., 5 min): 129 ± 6 ms | Mean arterial pressure (canine heart; 0.4 mg/kg i.v., 5 min): 103 ± 3 mmHg | Heart rate (canine heart; 0.4 mg/kg i.v., 5 min, listed as 80/205): 135 ± 9 beats per min | Occurrence of second and third degree AV conduction block (canine heart; 0.4 mg/kg i.v., listed as 80R/20S-verapamil): 3 animals

COc1ccc(CCN(C)CCCC(C#N)(c2ccc(OC)c(OC)c2)C(C)C)cc1OC (racemic) [90/10S]
AH time (canine heart; 0.1 mg/kg i.v., 0 min): 87 ± 6 ms | Heart rate (canine heart; 0.1 mg/kg i.v., 0 min): 111 ± 7 beats per min | Mean arterial pressure (canine heart; 0.1 mg/kg i.v., 0 min): 94 ± 3 mmHg | AH time (canine heart; 0.1 mg/kg i.v., 1 min): 88 ± 6 ms | Heart rate (canine heart; 0.1 mg/kg i.v., 1 min): 103 ± 7 beats per min | Mean arterial pressure (canine heart; 0.1 mg/kg i.v., 1 min): 97 ± 4 mmHg | AH time (canine heart; 0.1 mg/kg i.v., 2 min): 90 ± 6 ms | Heart rate (canine heart; 0.1 mg/kg i.v., 2 min): 104 ± 6 beats per min | Mean arterial pressure (canine heart; 0.1 mg/kg i.v., 2 min): 99 ± 3 mmHg | AH time (canine heart; 0.1 mg/kg i.v., 3 min): 91 ± 6 ms | Heart rate (canine heart; 0.1 mg/kg i.v., 3 min): 101 ± 8 beats per min | Mean arterial pressure (canine heart; 0.1 mg/kg i.v., 3 min): 99 ± 3 mmHg | AH time (canine heart; 0.1 mg/kg i.v., 4 min): 89 ± 6 ms | Heart rate (canine heart; 0.1 mg/kg i.v., 4 min): 101 ± 7 beats per min | Mean arterial pressure (canine heart; 0.1 mg/kg i.v., 4 min): 100 ± 4 mmHg | AH time (canine heart; 0.1 mg/kg i.v., 5 min): 89 ± 7 ms | Heart rate (canine heart; 0.1 mg/kg i.v., 5 min): 103 ± 7 beats per min | Mean arterial pressure (canine heart; 0.1 mg/kg i.v., 5 min): 99 ± 3 mmHg | AH time (canine heart; 0.2 mg/kg i.v., 0 min): 91 ± 7 ms | Heart rate (canine heart; 0.2 mg/kg i.v., 0 min): 123 ± 7 beats per min | Mean arterial pressure (canine heart; 0.2 mg/kg i.v., 0 min): 94 ± 4 mmHg | AH time (canine heart; 0.2 mg/kg i.v., 1 min): 95 ± 8 ms | Heart rate (canine heart; 0.2 mg/kg i.v., 1 min): 124 ± 10 beats per min | Mean arterial pressure (canine heart; 0.2 mg/kg i.v., 1 min): 98 ± 4 mmHg | AH time (canine heart; 0.2 mg/kg i.v., 2 min): 99 ± 8 ms | Heart rate (canine heart; 0.2 mg/kg i.v., 2 min): 116 ± 7 beats per min | Mean arterial pressure (canine heart; 0.2 mg/kg i.v., 2 min): 99 ± 4 mmHg | AH time (canine heart; 0.2 mg/kg i.v., 3 min): 98 ± 7 ms | Heart rate (canine heart; 0.2 mg/kg i.v., 3 min): 113 ± 6 beats per min | Mean arterial pressure (canine heart; 0.2 mg/kg i.v., 3 min): 99 ± 4 mmHg | AH time (canine heart; 0.2 mg/kg i.v., 4 min): 97 ± 7 ms | Heart rate (canine heart; 0.2 mg/kg i.v., 4 min): 116 ± 7 beats per min | Mean arterial pressure (canine heart; 0.2 mg/kg i.v., 4 min): 100 ± 4 mmHg | AH time (canine heart; 0.2 mg/kg i.v., 5 min): 104 ± 7 ms | Heart rate (canine heart; 0.2 mg/kg i.v., 5 min): 118 ± 8 beats per min | Mean arterial pressure (canine heart; 0.2 mg/kg i.v., 5 min): 101 ± 3 mmHg | AH time (canine heart; 0.4 mg/kg i.v., 0 min): 100 ± 9 ms | Heart rate (canine heart; 0.4 mg/kg i.v., 0 min): 145 ± 10 beats per min | Mean arterial pressure (canine heart; 0.4 mg/kg i.v., 0 min): 83 ± 7 mmHg | AH time (canine heart; 0.4 mg/kg i.v., 1 min): 111 ± 10 ms | Heart rate (canine heart; 0.4 mg/kg i.v., 1 min): 134 ± 9 beats per min | Mean arterial pressure (canine heart; 0.4 mg/kg i.v., 1 min): 89 ± 7 mmHg | AH time (canine heart; 0.4 mg/kg i.v., 2 min): 116 ± 10 ms | Heart rate (canine heart; 0.4 mg/kg i.v., 2 min): 128 ± 10 beats per min | Mean arterial pressure (canine heart; 0.4 mg/kg i.v., 2 min): 90 ± 7 mmHg | AH time (canine heart; 0.4 mg/kg i.v., 3 min): 116 ± 12 ms | Heart rate (canine heart; 0.4 mg/kg i.v., 3 min): 128 ± 11 beats per min | Mean arterial pressure (canine heart; 0.4 mg/kg i.v., 3 min): 90 ± 7 mmHg | AH time (canine heart; 0.4 mg/kg i.v., 4 min): 114 ± 9 ms | Heart rate (canine heart; 0.4 mg/kg i.v., 4 min): 129 ± 10 beats per min | Mean arterial pressure (canine heart; 0.4 mg/kg i.v., 4 min): 93 ± 7 mmHg | AH time (canine heart; 0.4 mg/kg i.v., 5 min): 112 ± 10 ms | Heart rate (canine heart; 0.4 mg/kg i.v., 5 min): 125 ± 9 beats per min | Mean arterial pressure (canine heart; 0.4 mg/kg i.v., 5 min): 92 ± 7 mmHg | Sinus node recovery time (SNRT), significance (canine heart; paced at 200 beats/min): significant decrease

COc1ccc(CCN(C)CCCC(C#N)(c2ccc(OC)c(OC)c2)C(C)C)cc1OC (racemic) [compound 70]
Concentration in octanol [1]: 4350 ng/mL and 4200 ng/mL and 4240 ng/mL | Concentration in water [1]: 5810 ng/mL and 6000 ng/mL and 5380 ng/mL

COc1ccc(CCN(C)CCCC(C#N)(c2ccc(OC)c(OC)c2)C(C)C)cc1OC (racemic) [compound 90]
Concentration in octanol [1]: 5800 ng/mL and 5290 ng/mL and 4790 ng/mL | Concentration in water [1]: 5900 ng/mL and 6180 ng/mL and 5100 ng/mL
